Measurements published in PubChem BioAssay AID248 (DTP/NCI, 2004).
Several values for one entry are separate records, joined by “and”; a condition that tells them apart may be missing. Equal entries are not always repeated. Inconclusive results and toxic doses are left out. No stated cut-off is given here; in the data, active means T/C of 150% or more; inactive means T/C below 125%.

System: L1210 leukemia ip in BDF1 mice, survival T/C
Test: NCI In Vivo Anticancer Drug Screen. Data for tumor model L1210 Leukemia (intraperitoneal) in B6D2F1 (BDF1) mice
Conditions: endpoint: mean survival time, higher = longer survival
Summary of the method: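 Ratio derived from survival: compound-dosed mice over vehicle-dosed mice, all bearing a transplantable tumor.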

[1] = dose: 25.0 mg/kg/injection, schedule: Q04DX003 (ip), vehicle: Klucel (hydroxypropylcellulose) (HPC)
[2] = dose: 50.0 mg/kg/injection, schedule: Q01DX001 (ip), vehicle: carboxymethylcellulose (CMC)
[3] = dose: 100.0 mg/kg/injection, schedule: Q01DX001 (ip), vehicle: carboxymethylcellulose (CMC)
[4] = dose: 100.0 mg/kg/injection, schedule: Q01DX001 (ip), vehicle: saline
[5] = dose: 100.0 mg/kg/injection, schedule: Q04DX003 (ip), vehicle: Klucel (hydroxypropylcellulose) (HPC)
[6] = dose: 200.0 mg/kg/injection, schedule: Q01DX001 (ip), vehicle: carboxymethylcellulose (CMC)
[7] = dose: 200.0 mg/kg/injection, schedule: Q01DX001 (ip), vehicle: saline
[8] = dose: 200.0 mg/kg/injection, schedule: Q04DX003 (ip), vehicle: saline with Tween-80
[9] = dose: 400.0 mg/kg/injection, schedule: Q01DX001 (ip), vehicle: carboxymethylcellulose (CMC)
[10] = dose: 400.0 mg/kg/injection, schedule: Q01DX001 (ip), vehicle: saline
[11] = dose: 100.0 mg/kg/injection, schedule: Q01DX009 (ip), vehicle: Klucel (hydroxypropylcellulose) (HPC)
[12] = dose: 200.0 mg/kg/injection, schedule: Q01DX009 (ip), vehicle: Klucel (hydroxypropylcellulose) (HPC)
[13] = dose: 200.0 mg/kg/injection, schedule: Q04DX003 (ip), vehicle: Klucel (hydroxypropylcellulose) (HPC)
[14] = dose: 400.0 mg/kg/injection, schedule: Q01DX009 (ip), vehicle: Klucel (hydroxypropylcellulose) (HPC)
[15] = dose: 400.0 mg/kg/injection, schedule: Q04DX003 (ip), vehicle: Klucel (hydroxypropylcellulose) (HPC)
[16] = dose: 75.0 mg/kg/injection, schedule: Q01DX001 (ip), vehicle: saline
[17] = dose: 150.0 mg/kg/injection, schedule: Q01DX001 (ip), vehicle: saline
[18] = dose: 100.0 mg/kg/injection, schedule: Q04DX003 (ip), vehicle: saline with Tween-80
[19] = dose: 100.0 mg/kg/injection, schedule: Q04DX003 (ip), vehicle: saline

Measured: T/C

C=CC(=O)O
inactive: dose: 0.5 mg/kg/injection, schedule: Q01DX009 (ip), vehicle: saline 101 % of control | dose: 1.0 mg/kg/injection, schedule: Q01DX009 (ip), vehicle: saline 101 % of control | dose: 1.56 mg/kg/injection, schedule: Q01DX009 (ip), vehicle: acetone 104 % of control | dose: 2.0 mg/kg/injection, schedule: Q01DX009 (ip), vehicle: saline 108 % of control | dose: 3.12 mg/kg/injection, schedule: Q01DX009 (ip), vehicle: acetone 102 % of control | dose: 4.0 mg/kg/injection, schedule: Q01DX009 (ip), vehicle: saline 116 % of control | dose: 5.0 mg/kg/injection, schedule: Q01DX001 (ip), vehicle: saline 102 % of control and 93 % of control | dose: 6.25 mg/kg/injection, schedule: Q01DX009 (ip), vehicle: acetone 88 % of control | dose: 10.0 mg/kg/injection, schedule: Q01DX001 (ip), vehicle: saline 108 % of control and 100 % of control | dose: 20.0 mg/kg/injection, schedule: Q01DX001 (ip), vehicle: saline 101 % of control | [1] 90 % of control | [2] 88 % of control and 106 % of control | dose: 50.0 mg/kg/injection, schedule: Q01DX001 (ip), vehicle: saline 95 % of control | [3] 86 % of control and 95 % of control | [4] 90 % of control and 88 % of control | [5] 89 % of control | [6] 93 % of control and 101 % of control | [7] 93 % of control and 88 % of control | [8] 87 % of control | [9] 88 % of control and 106 % of control | [10] 101 % of control and 95 % of control and 102 % of control | dose: 320.0 micrograms/kg/injection, schedule: Q01DX009 (ip), vehicle: saline 96 % of control | dose: 480.0 micrograms/kg/injection, schedule: Q01DX009 (ip), vehicle: saline 102 % of control | dose: 730.0 micrograms/kg/injection, schedule: Q01DX009 (ip), vehicle: saline 106 % of control | dose: 1100.0 micrograms/kg/injection, schedule: Q01DX009 (ip), vehicle: saline 107 % of control

CCNC(C)(C)C(SS(=O)(=O)O)c1cccs1 (stereo not given)
inactive: dose: 100.0 mg/kg/injection, schedule: Q04DX003 (ip), vehicle: water 109 % of control | dose: 200.0 mg/kg/injection, schedule: Q04DX003 (ip), vehicle: water 96 % of control | dose: 400.0 mg/kg/injection, schedule: Q04DX003 (ip), vehicle: water 94 % of control

CCCCCCCCNC(=O)C1OC(n2cnc3c(N)ncnc32)C2OC(C)(C)OC12 (stereo not given)
inactive: dose: 100.0 mg/kg/injection, schedule: Q01DX005 (ip), vehicle: saline with Tween-80 94 % of control | dose: 200.0 mg/kg/injection, schedule: Q01DX005 (ip), vehicle: saline with Tween-80 102 % of control

CCC(=O)CCC1CCCCC1
inactive: [4] 94 % of control | [7] 100 % of control | [10] 91 % of control

CCOC(=O)C1C(O)=C(P(=O)(C2=C(O)C(C(=O)OCC)C(c3ccc(OC(C)=O)cc3)C(C(=O)O)C2=O)N(CCCl)CCCl)C(=O)C(C(=O)O)C1c1ccc(OC(C)=O)cc1 (stereo not given)
inactive: [11] 97 % of control | [5] 98 % of control | [12] 102 % of control | [13] 98 % of control | [14] 102 % of control | [15] 108 % of control

N#CCCN(C(=O)COc1ccc(Cl)cc1Cl)C1CCCCC1
inactive: [11] 95 % of control | [5] 95 % of control | [12] 104 % of control | [13] 100 % of control | [14] 95 % of control

CC(=O)CC(=O)Nc1ccc(C(=O)c2ccccc2)cc1
inactive: dose: 37.5 mg/kg/injection, schedule: Q01DX009 (ip), vehicle: saline 98 % of control | dose: 75.0 mg/kg/injection, schedule: Q01DX001 (ip), vehicle: acetone 87 % of control | [16] 95 % of control | dose: 75.0 mg/kg/injection, schedule: Q01DX009 (ip), vehicle: saline 93 % of control | [17] 98 % of control | dose: 150.0 mg/kg/injection, schedule: Q01DX009 (ip), vehicle: saline 107 % of control | dose: 300.0 mg/kg/injection, schedule: Q01DX001 (ip), vehicle: acetone 98 % of control | dose: 300.0 mg/kg/injection, schedule: Q01DX001 (ip), vehicle: saline 90 % of control

O=C1c2ccccc2-c2ccccc2C1(Cl)Cl
inactive: [16] 105 % of control

C/C(=N\N=C(/C)c1cccc(Br)c1)c1cccc(Br)c1
inactive: [5] 92 % of control | [13] 90 % of control | [15] 95 % of control

CCC(CCl)NC1CCCCC1 (stereo not given)
inactive: [16] 106 % of control | [17] 106 % of control

Cc1ccc(C(C)C)c(OCC2C(=O)C3CCN2CC3)c1 (stereo not given)
inactive: dose: 12.5 mg/kg/injection, schedule: Q04DX003 (ip), vehicle: Klucel (hydroxypropylcellulose) (HPC) 101 % of control | [1] 101 % of control | dose: 50.0 mg/kg/injection, schedule: Q04DX003 (ip), vehicle: Klucel (hydroxypropylcellulose) (HPC) 95 % of control

CC(C)C(CN)(CCCN1CCCCC1)c1cccc2ccccc12 (stereo not given)
inactive: [18] 101 % of control

CC(=O)OC1C2OC3C=C(C)CCC3(CO)C(C)(C1OC(C)=O)C21CO1 (stereo not given)
inactive: dose: 0.8 mg/kg/injection, schedule: Q01DX009 (ip), vehicle: other 107 % of control | dose: 1.6 mg/kg/injection, schedule: Q01DX009 (ip), vehicle: other 111 % of control | dose: 6.4 mg/kg/injection, schedule: Q01DX009 (ip), vehicle: other 95 % of control

CCOC(=O)c1cnc(SC)nc1NCc1ccc(Cl)c(Cl)c1
inactive: [18] 94 % of control | [8] 102 % of control | dose: 400.0 mg/kg/injection, schedule: Q04DX003 (ip), vehicle: saline with Tween-80 96 % of control

CN(Cc1ccccc1)C(=O)Nc1ccc(Cl)c(Cl)c1
inactive: [11] 97 % of control | [12] 110 % of control | [14] 101 % of control

CC1([N+](=O)[O-])COP(=O)(NCc2ccncc2)OC1 (stereo not given)
inactive: [2] 107 % of control | [3] 104 % of control | [6] 104 % of control | [9] 109 % of control

COc1ccc([N+](=O)[O-])cc1NC(=O)N(Cc1ccccc1)c1ccccc1
inactive: dose: 50.0 mg/kg/injection, schedule: Q01DX009 (ip), vehicle: Klucel (hydroxypropylcellulose) (HPC) 96 % of control | [11] 93 % of control | [12] 96 % of control

Cc1nc(N)sc1C
inactive: dose: 25.0 mg/kg/injection, schedule: Q04DX002 (ip), vehicle: saline with Tween-80 100 % of control | dose: 25.0 mg/kg/injection, schedule: Q04DX003 (ip), vehicle: saline 89 % of control | dose: 50.0 mg/kg/injection, schedule: Q04DX002 (ip), vehicle: saline with Tween-80 102 % of control | dose: 50.0 mg/kg/injection, schedule: Q04DX003 (ip), vehicle: saline 100 % of control | dose: 75.0 mg/kg/injection, schedule: Q01DX001 (ip), vehicle: carboxymethylcellulose (CMC) 100 % of control | [19] 102 % of control | dose: 150.0 mg/kg/injection, schedule: Q01DX001 (ip), vehicle: carboxymethylcellulose (CMC) 102 % of control | dose: 300.0 mg/kg/injection, schedule: Q01DX001 (ip), vehicle: carboxymethylcellulose (CMC) 100 % of control

C=CCN(CC=C)C(=O)C1C2CC3OC(=O)C1C3C2 (stereo not given)
inactive: [19] 94 % of control and 104 % of control | dose: 200.0 mg/kg/injection, schedule: Q04DX003 (ip), vehicle: saline 109 % of control and 104 % of control | dose: 400.0 mg/kg/injection, schedule: Q04DX003 (ip), vehicle: saline 94 % of control and 102 % of control

CSc1nc(SC)c(Cl)c(C(Cl)Cl)n1
inactive: [5] 98 % of control | [13] 94 % of control | [15] 102 % of control

O=C(O)C(=O)/C=C/c1cccc([N+](=O)[O-])c1
inactive: [4] 96 % of control | dose: 100.0 mg/kg/injection, schedule: Q01DX009 (ip), vehicle: saline 106 % of control | [7] 96 % of control | dose: 200.0 mg/kg/injection, schedule: Q01DX009 (ip), vehicle: saline 95 % of control | [10] 102 % of control

c1ccc([P+](c2ccccc2)(c2ccccc2)c2ccc([P+](c3ccccc3)(c3ccccc3)c3ccccc3)cc2)cc1
inactive: dose: 3.13 mg/kg/injection, schedule: Q04DX003 (ip), vehicle: saline 106 % of control | dose: 6.25 mg/kg/injection, schedule: Q04DX003 (ip), vehicle: saline 109 % of control | dose: 12.5 mg/kg/injection, schedule: Q04DX003 (ip), vehicle: saline 93 % of control and 102 % of control
